Laboratory results published in US9624206B2, “Antibacterial 1H-indazole and 1H-indole derivatives” (priority 2013, dated 2017).
In brackets after ≈: the same amount, converted by molar mass.

Columns and labels:
Assay in all cases: Bacterial growth minimal inhibitory concentration (microdilution, CLSI M7-A7)
Type in all cases: cell-based
E. coli ATCC25922 = settings: Escherichia coli, ATCC25922; quinolone-sensitive strain; cation-adjusted Mueller-Hinton Broth
Description: (§1) Minimal Inhibitory Concentrations (MICs; mg/L) were determined in cation-adjusted Mueller-Hinton Broth by a microdilution method following the description given in “Methods for Dilution Antimicrobial Susceptibility Tests for Bacteria that Grow Aerobically”, Approved standard, 7th ed., Clinical and Laboratory Standards Institute (CLSI) Document M7-A7, Wayne, Pa., USA (2006).
(§2) All Example compounds were tested against several Gram-positive and Gram-negative bacteria. […] K. pneumoniae A-651 and Acinetobacter baumannii T6474 are multiply-resistant strains (in particular quinolone-resistant), while E. coli ATCC25922 and P. aeruginosa ATCC27853 are quinolone-sensitive strains.

[1] = tested on: Acinetobacter baumannii T6474; settings: Acinetobacter baumannii, T6474; multiply-resistant strain (in particular quinolone-resistant); cation-adjusted Mueller-Hinton Broth
Description: as §1, §2

P. aeruginosa ATCC27853 = settings: Pseudomonas aeruginosa, ATCC27853; quinolone-sensitive strain; cation-adjusted Mueller-Hinton Broth
Description: as §1, §2

K. pneumoniae A-651 = settings: Klebsiella pneumoniae, A651; multiply-resistant strain (in particular quinolone-resistant); cation-adjusted Mueller-Hinton Broth
Description: as §1, §2

Structure (SMILES)	MIC (E. coli ATCC25922) [µg/mL]	MIC [1] [µg/mL]	MIC (P. aeruginosa ATCC27853) [µg/mL]	MIC (K. pneumoniae A-651) [µg/mL]
C[C@@](CCn1ccc2cc(C#CC#C[C@@H]3C[C@H]3CO)c(F)cc21)(C(=O)NO)S(C)(=O)=O (relative stereo) [Example 41, (R)-4-(6-fluoro-5-(((1R*,2R*)-2-(hydroxymethyl)cyclopropyl)buta-1,3-diyn-1-yl)-1H-indol-1-yl)-N-hydroxy-2-methyl-2-(methylsulfonyl)butanamide]	0.125 (≈ 0.28 µM)	16 (≈ 35.8 µM)	1 (≈ 2.24 µM)	0.125 (≈ 0.28 µM)
COc1ccc(-c2ccc3c(ccn3CC[C@](C)(C(=O)NO)S(C)(=O)=O)c2)c(F)c1 (single isomer, unassigned) [Example 2]	0.125 (≈ 0.288 µM)	8 (≈ 18.4 µM)	2 (≈ 4.6 µM)	2 (≈ 4.6 µM)
C[C@@](CCn1ccc2cc(C#Cc3ccc(C4(O)COC4)cc3)c(F)cc21)(C(=O)NO)S(C)(=O)=O (single isomer, unassigned) [Example 15]	0.5 (≈ 0.999 µM)	0.25 (≈ 0.499 µM)	1 (≈ 2 µM)	0.5 (≈ 0.999 µM)
CSc1ccc(-c2ccc3c(cnn3CC[C@](C)(C(=O)NO)S(C)(=O)=O)c2)c(F)c1 [Example 1, (R)-4-(5-(2-fluoro-4-(methylthio)phenyl)-1H-indazol-1-yl)-N-hydroxy-2-methyl-2-(methylsulfonyl)butanamide]	≤ 0.063	16 (≈ 35.4 µM)	4 (≈ 8.86 µM)	0.25 (≈ 0.554 µM)
COc1ccc(-c2ccc3c(cnn3CC[C@](C)(C(=O)NO)S(C)(=O)=O)c2)c(F)c1 [Example 3, (R)-4-(5-(2-fluoro-4-methoxyphenyl)-1H-indazol-1-yl)-N-hydroxy-2-methyl-2-(methylsulfonyl)butanamide]	0.25 (≈ 0.574 µM)	1 (≈ 2.3 µM)	1 (≈ 2.3 µM)	1 (≈ 2.3 µM)
C[C@@](CCn1ncc2cc(C#Cc3ccc(CO)cc3)ccc21)(C(=O)NO)S(C)(=O)=O [Example 4, (R)—N-hydroxy-4-(5-((4-(hydroxymethyl)phenyl)ethynyl)-1H-indazol-1-yl)-2-methyl-2-(methylsulfonyl)butanamide]	0.125 (≈ 0.283 µM)	0.125 (≈ 0.283 µM)	2 (≈ 4.53 µM)	≤ 0.063
C[C@@](CCn1ncc2cc(C#CC#CC3(O)COC3)ccc21)(C(=O)NO)S(C)(=O)=O [Example 5, (R)—N-hydroxy-4-(5-((3-hydroxyoxetan-3-yl)buta-1,3-diyn-1-yl)-1H-indazol-1-yl)-2-methyl-2-(methylsulfonyl)butanamide]	1 (≈ 2.32 µM)	> 32	2 (≈ 4.64 µM)	1 (≈ 2.32 µM)
C[C@@](CCn1ncc2cc(-c3ccc(-n4nccn4)cc3)ccc21)(C(=O)NO)S(C)(=O)=O [Example 6, (R)-4-(5-(4-(2H-1,2,3-triazol-2-yl)phenyl)-1H-indazol-1-yl)-N-hydroxy-2-methyl-2-(methylsulfonyl)butanamide]	≤ 0.063	0.125 (≈ 0.275 µM)	2 (≈ 4.4 µM)	0.125 (≈ 0.275 µM)
CC(C)(O)C#CC#Cc1ccc2c(cnn2CC[C@](C)(C(=O)NO)S(C)(=O)=O)c1 [Example 7, (R)—N-hydroxy-4-(5-(5-hydroxy-5-methylhexa-1,3-diyn-1-yl)-1H-indazol-1-yl)-2-methyl-2-(methylsulfonyl)butanamide]	0.5 (≈ 1.2 µM)	32 (≈ 76.6 µM)	2 (≈ 4.79 µM)	1 (≈ 2.4 µM)
CC(C)(O)c1ccc(C#Cc2ccc3c(cnn3CC[C@](C)(C(=O)NO)S(C)(=O)=O)c2)cc1 [Example 8, (R)—N-hydroxy-4-(5-((4-(2-hydroxypropan-2-yl)phenyl)ethynyl)-1H-indazol-1-yl)-2-methyl-2-(methylsulfonyl)butanamide]	0.125 (≈ 0.266 µM)	0.25 (≈ 0.532 µM)	2 (≈ 4.26 µM)	0.25 (≈ 0.532 µM)
C[C@@](CCn1ccc2cc(C#Cc3ccc(CO)cc3)ccc21)(C(=O)NO)S(C)(=O)=O [Example 9, (R)—N-hydroxy-4-(5-((4-(hydroxymethyl)phenyl)ethynyl)-1H-indol-1-yl)-2-methyl-2-(methylsulfonyl)butanamide]	≤ 0.063	0.125 (≈ 0.284 µM)	1 (≈ 2.27 µM)	0.125 (≈ 0.284 µM)
C[C@@](CCn1ccc2cc(C#Cc3ccc(C4(O)COC4)cc3)ccc21)(C(=O)NO)S(C)(=O)=O [Example 10, (R)—N-hydroxy-4-(5-((4-(3-hydroxyoxetan-3-yl)phenyl)ethynyl)-1H-indol-1-yl)-2-methyl-2-(methylsulfonyl)butanamide]	0.125 (≈ 0.259 µM)	0.125 (≈ 0.259 µM)	1 (≈ 2.07 µM)	0.25 (≈ 0.518 µM)

Now from value to molecule:

MIC (E. coli ATCC25922) [µg/mL]	MIC [1] [µg/mL]	MIC (P. aeruginosa ATCC27853) [µg/mL]	MIC (K. pneumoniae A-651) [µg/mL]	Structure (SMILES)
8 (≈ 21.1 µM)	16 (≈ 42.3 µM)	16 (≈ 42.3 µM)	16 (≈ 42.3 µM)	CC#CCOc1ccc2c(ccn2CCC(C)(C(=O)NO)S(C)(=O)=O)c1 (racemic) [RE1, (RS)-4-(5-(but-2-yn-1-yloxy)-1H-indol-1-yl)-N-hydroxy-2-methyl-2-(methylsulfonyl)butanamide]
8 (≈ 18.4 µM)	32 (≈ 73.5 µM)	16 (≈ 36.7 µM)	16 (≈ 36.7 µM)	COc1cccc(-c2ccc3c(cnn3CCC(C)(C(=O)NO)S(C)(=O)=O)c2)c1F (racemic) [RE2, (RS)-4-(5-(2-fluoro-3-methoxyphenyl)-1H-indazol-1-yl)-N-hydroxy-2-methyl-2-(methylsulfonyl)butanamide]
0.25 (≈ 0.605 µM)	0.25 (≈ 0.605 µM)	16 (≈ 38.7 µM)	1 (≈ 2.42 µM)	CC(CCn1ncc2cc(/C=C/c3ccccc3)ccc21)(C(=O)NO)S(C)(=O)=O (racemic) [RE3, (RS)-(E)-N-hydroxy-2-methyl-2-(methylsulfonyl)-4-(5-styryl-1H-indazol-1-yl)butanamide]
2 (≈ 4.81 µM)	8 (≈ 19.3 µM)	8 (≈ 19.3 µM)	0.5 (≈ 1.2 µM)	CC(CCn1ncc2cc(CCc3ccccc3)ccc21)(C(=O)NO)S(C)(=O)=O (racemic) [RE4, (RS)—N-hydroxy-2-methyl-2-(methylsulfonyl)-4-(5-phenethyl-1H-indazol-1-yl)butanamide]
0.5	32	16	0.5	CC(CCn1ncc2cc(C#Cc3ccc(CN4CCOCC4)cc3)ccc21)(C(=O)NO)S(C)(=O)=O.Cc1ccc(S(=O)(=O)O)cc1 (racemic) [RE5, (RS)—N-hydroxy-2-methyl-2-(methylsulfonyl)-4-(5-((4-(morpholinomethyl)phenyl)ethynyl)-1H-indazol-1-yl)butanamide 4-toluenesulfonic acid salt]
0.25 (≈ 0.586 µM)	1 (≈ 2.34 µM)	8 (≈ 18.8 µM)	0.5 (≈ 1.17 µM)	CC(CCn1ncc2cc(C#Cc3ccc(N)cc3)ccc21)(C(=O)NO)S(C)(=O)=O (racemic) [RE6, (RS)-4-(5-((4-aminophenyl)ethynyl)-1H-indazol-1-yl)-N-hydroxy-2-methyl-2-(methylsulfonyl)butanamide]
4 (≈ 8.48 µM)	8 (≈ 17 µM)	8 (≈ 17 µM)	1 (≈ 2.12 µM)	CC(CCn1ncc2cc(-c3ccc(OC(F)(F)F)cc3)ccc21)(C(=O)NO)S(C)(=O)=O (racemic) [RE7, (RS)—N-hydroxy-2-methyl-2-(methylsulfonyl)-4-(5-(4-(trifluoromethoxy)phenyl)-1H-indazol-1-yl)butanamide]
0.25	0.5	8	≤ 0.063	CC(CCn1ccc2cc(-c3ccc(-n4nccn4)cc3)ccc21)(C(=O)NO)S(C)(=O)=O.O=CO (racemic) [RE8, (RS)-4-(5-(4-(2H-1,2,3-triazol-2-yl)phenyl)-1H-indol-1-yl)-N-hydroxy-2-methyl-2-(methylsulfonyl)butanamide formate]
4 (≈ 8.5 µM)	2 (≈ 4.25 µM)	8 (≈ 17 µM)	2 (≈ 4.25 µM)	CC(CCn1ccc2cc(-c3ccc(OC(F)(F)F)cc3)ccc21)(C(=O)NO)S(C)(=O)=O (racemic) [RE9, (RS)—N-hydroxy-2-methyl-2-(methylsulfonyl)-4-(5-(4-(trifluoromethoxy)phenyl)-1H-indol-1-yl)butanamide]
2 (≈ 4.44 µM)	4 (≈ 8.88 µM)	8 (≈ 17.8 µM)	0.5 (≈ 1.11 µM)	CSc1ccc(-c2ccc3c(ccn3CCC(C)(C(=O)NO)S(C)(=O)=O)c2)c(F)c1 (racemic) [RE10, (RS)-4-(5-(2-fluoro-4-(methylthio)phenyl)-1H-indol-1-yl)-N-hydroxy-2-methyl-2-(methylsulfonyl)butanamide]
1 (≈ 2.21 µM)	4 (≈ 8.84 µM)	8 (≈ 17.7 µM)	2 (≈ 4.42 µM)	COc1ccc(-c2cc3ccn(CCC(C)(C(=O)NO)S(C)(=O)=O)c3cc2F)c(F)c1 (racemic) [RE11, (RS)-4-(6-fluoro-5-(2-fluoro-4-methoxyphenyl)-1H-indol-1-yl)-N-hydroxy-2-methyl-2-(methylsulfonyl)butanamide]
2 (≈ 4.42 µM)	2 (≈ 4.42 µM)	2 (≈ 4.42 µM)	4 (≈ 8.84 µM)	COc1ccc(-c2ccc3c(ccn3CCC(C)(C(=O)NO)S(C)(=O)=O)c2F)c(F)c1 (racemic) [RE12, (RS)-4-(4-fluoro-5-(2-fluoro-4-methoxyphenyl)-1H-indol-1-yl)-N-hydroxy-2-methyl-2-(methylsulfonyl)butanamide]
0.25 (≈ 0.499 µM)	4 (≈ 7.99 µM)	2 (≈ 4 µM)	0.5 (≈ 0.999 µM)	CC(CCn1ccc2c(F)c(C#Cc3ccc(C4(O)COC4)cc3)ccc21)(C(=O)NO)S(C)(=O)=O (racemic) [RE13, (RS)-4-(4-fluoro-5-((4-(3-hydroxyoxetan-3-yl)phenyl)ethynyl)-1H-indol-1-yl)-N-hydroxy-2-methyl-2-(methylsulfonyl)butanamide]
